# Like-named read-outs stand apart in the source and are kept apart here.
# What was measured:
# [1] = tested on: Plasmodium falciparum 3D7 sensitive strain; experiment: SYBR Green growth assay, asexual blood stages, 3D7 sensitive strain; type: cell-based
# Procedure: (§1) Parasite strains SB1-A6, 7G8, V1/S, and HB3 were acquired from BEI-MR4, while the ATQ R1 strain, carrying a V259L gene mutation, was generated in-house. […] Parasitemia was monitored using Giemsa-stained blood smears.
# (§2) Bioassays were conducted with synchronized ring-stage parasites using sorbitol synchronization. Antimalarial compounds were evaluated in 96-well plates, and parasite growth was assessed using a SYBR Green-based fluorescence assay The assays were conducted when the parasite quantity reached at least 70% of the ring stage. Compounds were initially added at specific concentrations in the first wells, followed by serial dilution (1:2) ranging from 20 μM to 0.009 μM. Subsequently, a solution containing parasites in RPMI medium at a hematocrit of 2% was added to each well, and the parasites were then incubated for 72 h.
# (§3) The IC50 values were determined using concentration–response curves generated in GraphPad 8 software. Additionally, the resistance index was calculated by comparing IC50 values obtained for the sensitive 3D7 strain with those of the resistant strains.
# P. falciparum HB3 strain = experiment: SYBR Green growth assay, asexual blood stages, HB3 strain; type: cell-based, Plasmodium falciparum; conditions: Plasmodium falciparum
# Procedure: as §1, §2, §3
# [2] = tested on: P. falciparum V1/S strain; experiment: microbe, parasite or virus in culture; type: cell-based, Plasmodium falciparum; conditions: Plasmodium falciparum, 72 h
# Procedure: (§4) Healthy blood samples for parasite culture were obtained from voluntary donors (approved under protocol #28176720.9.0000.0011), processed to remove white blood cells, and stored at 2 °C–8 °C for up to 15 days. Parasite strains SB1-A6, 7G8, V1/S, and HB3 were acquired from BEI-MR4, while the ATQ R1 strain, carrying a V259L gene mutation, was generated in-house. Infected erythrocytes were cultured in RPMI 1640 medium supplemented with Hepes, sodium bicarbonate, glucose, Albumax, and gentamicin, […], and incubated in a 5% CO2, 5% O2, and 90% N2 gas mixture at 37 °C with daily medium changes. Parasitemia was monitored using Giemsa-stained blood smears.
# as §2
# (§5) To assess parasite growth, the culture medium was replaced with a lysis solution (Trisbase: 49.31%, EDTA: 30.00%, Saponin: 0.16%, Triton: 0.02%) containing the fluorescent dye SYBR Green (Sigma). After a 30 min incubation, fluorescence readings were taken to determine the 50% inhibitory concentration (IC50) of parasite growth. The IC50 values were determined using concentration–response curves generated in GraphPad 8 software. Additionally, the resistance index was calculated by comparing IC50 values obtained for the sensitive 3D7 strain with those of the resistant strains.
# P. falciparum 7G8 strain = experiment: SYBR Green growth assay, asexual blood stages, 7G8 strain; type: cell-based, Plasmodium falciparum; conditions: Plasmodium falciparum
# Procedure: as §4, §2, §5
# [3] = tested on: P. falciparum ATQ_R1 strain; experiment: SYBR Green growth assay, asexual blood stages, ATQ_R1 strain; type: cell-based, Plasmodium falciparum; conditions: Plasmodium falciparum, 72 h
# Procedure: as §4, §2, §5
# [4] = tested on: P. falciparum DHODH strain; experiment: SYBR Green growth assay, asexual blood stages, DHODH resistant mutant; type: cell-based, Plasmodium falciparum; conditions: Plasmodium falciparum, 72 h
# Procedure: as §4, §2, §5
# [5] = tested on: P. falciparum oocyst development; set-up: method as in PMID 12878530, PMID 17361016; conditions: studies primarily focused on P. falciparum; ref 27;28; cited from earlier work
# [6] = tested on: P. berghei sexual phases in An. stephensi; experiment: In vivo transmission-blocking assay, P. berghei infected CD1 mice, An. stephensi; set-up: species or system Plasmodium berghei; conditions: positive control, 25 mg/kg x 2/12h
# Procedure: For this assay, a colony of An. stephensi was used. The lab-reared An. stephensi was kept under controlled conditions, with a temperature of 26 °C ± 1 °C, a 12/12 h light/dark cycle, a relative humidity of 70% ± 10%, and fed a 30% sugar solution as needed.
# Female CD1 mice (4 to 6 weeks old) were infected by intraperitoneal inoculation (i.p.) containing 10 million erythrocytes infected with P. berghei expressing the GFP fluorescent protein. After 4 days, when parasites in the sexual stages were detected via Giemsa-stained blood smears, mice with similar gametocytemia and parasitemia were randomly divided into three groups of two animals each. The groups of two mices were treated orally with compound 1 at two doses of 50 mg/kg, spaced 12 h apart. […] Following the second dose, mice were anesthetized and placed in individual cages containing approximately 50 female A. stephensi mosquitoes, which had been starved for 24 h before the assay. Blood feeding lasted for 30 min, after which unfed mosquitoes were removed. Engorged females were maintained in an insectary at 21 ± 1 °C and 60% relative humidity, receiving a 30% glucose solution.
# A group of 10 mosquitoes was set aside to assess sporozoite development in salivary glands, following a protocol similar to the one described previously, with dissections performed 21 days postblood meal. Additionally, 10 μL of mouse blood was collected immediately after treatment with the compounds and incubated at room temperature for 15 min. Exflagellation was observed under optical microscopy to evaluate the effect of 4-quinolone-derived molecules on microgametocyte activity.
# Huh-7 cells = experiment: Alamar Blue cell confluency (cytotoxicity) in Huh-7 cells; type: cell-based
# Procedure: For compound dilution, a medium containing 1:1000 gentamicin (G) and 1:300 fungizone (F) was used. Cells were seeded at 1 × 10^4 cells/well in 96-well plates and incubated at 37 °C with 5% CO2. After 24 h, compounds were diluted in RPMI+F+G, and after removal of the culture medium, added to the cells in triplicate. […] Following incubation for 1 h at 37 °C, 5% CO2, the cells were infected with luciferase-expressing P. berghei sporozoites (4,000 parasites per well) freshly extracted from the salivary glands of infected mosquitoes reared at the GIMM insectarium. The viability of Huh-7 cells exposed to the compounds was assessed 46 h later by the AlamarBlue assay (Invitrogen, UK) measurement, and parasite burden was measured 48 h after sporozoite addition using a bioluminescence assay (Biotium). IC50 values were calculated using GraphPad Prism through nonlinear regression analysis of normalized dose–response curves.
# On the first day of the assay, the compounds were diluted at 10 and 1 μM in cRPMI medium supplemented with fungizone. and gentamicin. The culture medium of Huh-7 cells was removed and replaced with compound dilutions in triplicate. As a control, a DMSO dilution mimicking the highest compound concentration used was included. The cells were incubated for 1 h at 37 °C in a 5% CO2 atmosphere.
# On the second day of the assay, compound toxicity was assessed by measuring cell confluency using the Alamar Blue/CellTiter Blue reagent. First, reagent aliquots stored at −20 °C were thawed and diluted at a 1:20 ratio in cRPMI. The culture medium was removed and replaced with 80 μL of the solution per well, followed by incubation at 37 °C and 5% CO2 for 1 h and 30 min. Fluorescence was measured using a plate reader with the Tecan i-Control software.
# [7] = tested on: late-stage gametocytes (IV and V) of P. falciparum NF54; experiment: Late-stage gametocyte bioluminescence assay, luciferase-expressing NF54; type: cell-based, Plasmodium falciparum; conditions: for Pf gametocytes inhibition: 1 μM
# Procedure: For the in vitro culture of sexual stages of P. falciparum NF54 Luminescent strain, the Tripathi protocol was followed.
# Parasite asexual stages were synchronized, and ring-stage parasites were incubated with a parasite-conditioned medium to induce stress and trigger gametocyte induction. After sexually committed parasites invaded new erythrocytes, N-acetylglucosamine was added to prevent further invasion and clear residual asexual parasites.
# When a predominance of late stage (IV and V) gametocytes was identified and counted together, , the MACS magnetic system was used for gametocyte enrichment, as previously described. ,
# The column content was eluted with RPMI medium into a 15 mL Falcon tube until translucent medium appeared, yielding ∼ 10 mL of eluate. The sample was centrifuged at 1500 rpm for 5 min at 37 °C, the supernatant discarded, and the pellet washed with preheated RPMI medium containing albumax. A 1 μL pellet sample was used to prepare a Giemsa-stained smear for gametocytaemia determination by counting 2000 cells. The gametocytemia for each assay were 71%, 64% and 31%. The remaining pellet was adjusted to 1 mL with RPMI medium containing 10% human serum at 37 °C. Total cell counts were performed using a Neubauer chamber with a 10X diluted sample.
# Each well contained 200,000 gametocytes in 150 μL without erythrocytes. After 48 h of incubation, a luciferase kit (Promega) was used to reveal the assay. Eighty microliters of supernatant were discarded, and the pellet was homogenized in the remaining content. Forty microliters of the sample were transferred to a clear 96-well plate containing lysis solution (1X), gently mixed, and moved to a white-bottomed 96-well plate. Luciferase (40 μL) was added, and luminescence was measured using a microplate reader with a 10-s integration time.
# [8] = tested on: P. berghei hepatic stages; experiment: Hepatic stage bioluminescence assay, Huh-7 cells infected with luciferase-expressing sporozoites; type: cell-based, Plasmodium berghei; conditions: read-out: IC50 (μM) Pb liver stages
# Procedure: Huh-7 cells were cultured in RPMI 1640 medium (Sigma) supplemented with 10% v/v fetal bovine serum (FBS), 1% v/v penicillin/streptomycin, 1% v/v glutamine, 1% v/v nonessential amino acids, and 10 mM HEPES, pH 7. For compound dilution, a medium containing 1:1000 gentamicin (G) and 1:300 fungizone (F) was used. Cells were seeded at 1 × 10^4 cells/well in 96-well plates and incubated at 37 °C with 5% CO2. After 24 h, compounds were diluted in RPMI+F+G, and after removal of the culture medium, added to the cells in triplicate. DMSO and atovaquone were used as negative and positive controls, respectively. Following incubation for 1 h at 37 °C, 5% CO2, the cells were infected with luciferase-expressing P. berghei sporozoites (4,000 parasites per well) freshly extracted from the salivary glands of infected mosquitoes reared at the GIMM insectarium. The viability of Huh-7 cells exposed to the compounds was assessed 46 h later by the AlamarBlue assay (Invitrogen, UK) measurement, and parasite burden was measured 48 h after sporozoite addition using a bioluminescence assay (Biotium). IC50 values were calculated using GraphPad Prism through nonlinear regression analysis of normalized dose–response curves.
# [9] = tested on: P. berghei exflagellation centers; experiment: Ex vivo exflagellation assay, blood of P. berghei infected mice; type: cell-based, Plasmodium berghei; conditions: 5 μM, 15 min incubation
# Procedure: For the ex vivo assays, a female CD1 mouse between 4 and 5 weeks of age (n = 3) was infected with P. berghei. After 4 days, when the presence of parasites (sexual phases) in the blood was observed by Giemsa-stained blood smear microscopy, the total blood from the mouse was collected into a preheated tube at 37 °C containing RPMI medium supplemented with 20% Fetal Bovine Serum (FBS) and 200 units/mL of heparin as an anticoagulant. The tube was maintained at 37 °C and centrifuged at 1500 rpm for 5 min. The supernatant was discarded, and the blood was resuspended in 20 mL of RPMI medium supplemented with 20% FBS.
# One milliliter of resuspended blood was added to each well of a 6-well plate containing 5 μM methylene blue (positive control), test compound 1 at 10 μM and 1 μM, and DMSO (negative control). After 15 min, the wells were homogenized, and 10 μL of the content was collected into an Eppendorf tube and incubated at room temperature for another 15 min. The sample was then transferred to a Neubauer chamber, and exflagellation centers were counted using an optical microscope at 40× magnification.
# [10] = Plasmodium falciparum, 3D7, 72 h, asexual blood stages, 3D7 sensitive strain, 72 h, read-out: IC50
# [11] = Plasmodium falciparum, 3D7, 72 h
compound,measurement,setting,value
"CCc1nc(N)nc(N)c1-c1ccc(Cl)cc1 [Pyrimethamine, reference compound]",IC50,[1]; [10],50 ± 8 nM
same,IC50,"P. falciparum HB3 strain; HB3 strain, 72 h, read-out: IC50",5200 ± 400 nM
same,IC50,[2],6 ± 2.4 µM
same,IC50,"P. falciparum 7G8 strain; 7G8 strain, 72 h, read-out: IC50",6 ± 1 µM
same,IC50,[3],> 10 µM
"Cc1cc(Nc2ccc(S(F)(F)(F)(F)F)cc2)n2nc(C(C)(F)F)nc2n1 [DSM 265, reference compound]",IC50,[4],> 10 µM
"CCN(CC)CCCC(C)Nc1ccnc2cc(Cl)ccc12 (centres unmarked) [Chloroquine, reference compound]",IC50,[1]; [11],6 ± 1 nM
same,IC50,"P. falciparum HB3 strain; HB3, 72 h",6 ± 2 nM
same,IC50,[2],0.17 ± 0.09 µM
same,IC50,"P. falciparum 7G8 strain; 7G8, 72 h",0.22 ± 0.08 µM
CCCCN(CCCC)CC(O)c1cc(Cl)cc2c1-c1ccc(Cl)cc1/C2=C/c1ccc(Cl)cc1 (centres unmarked) [lumefantrine],concentration required to inhibit oocyst development,[5],around 10 μM
"COc1cc(NC(C)CCCN)c2ncccc2c1 (centres unmarked) [Primaquine, reference compound]",inhibition of P. berghei oocysts (in vivo),[6],100%
same,Confluency %,Huh-7 cells; 1 μM,109 ± 10%
same,Confluency %,Huh-7 cells; 10 μM,104.0 ± 0.2%
2-(4-Chlorophenyl)-6-morpholinoquinolin-4(1H)-one [compound 3],IC50,"[1]; asexual blood stages, 3D7 sensitive strain, 72 h, read-out: IC50",2900 nM
same,Pf gametocytes inhibition,[7],no activity
same,IC50,"[8]; Huh-7 cells, 48 h after sporozoite addition",0.64 ± 0.04 µM
"CCCCCCCc1cc(O)c2ccccc2n1 [compound 5, 2-Heptylquinolin-4(1H)-one]",IC50,[1]; [11],1000 ± 200 nM
same,Pf gametocytes inhibition,[7],no activity
same,inhibition at 20 µM,"[7]; Plasmodium falciparum, NF54, 48 h, read-out: Pf gametocytes Inhibition (%)",25 ± 4%
same,IC50,"[8]; Plasmodium berghei, Huh-7, 48 h",0.3 ± 0.01 µM
same,Confluency %,Huh-7 cells; 1 μM,100 ± 1%
same,Confluency %,Huh-7 cells; 10 μM,147 ± 3%
"CN(C)c1ccc2nc3ccc(=[N+](C)C)cc-3sc2c1 [MB, Methylene blue, reference compound]",inhibition at 5 µM,"[7]; Plasmodium falciparum, NF54, 48 h, control at 5 μM, 48 h, read-out: Pf gametocytes Inhibition (%)",100%
same,inhibition of exflagellation centers (ex vivo),[9],completely inhibited
same,inhibition at 5 µM,"[9]; Plasmodium berghei, 0.25 h",100%
"O=c1cc(-c2ccc(N3CCOCC3)cc2)[nH]c2ccccc12 [compound 4, 2-(4-Morfolinofenil)-quinolin-4(1H)-one]",IC50,[1]; [10],> 10000 nM
same,Pf gametocytes inhibition,[7],no activity
"Cc1ccc(-c2cc(O)c3ccccc3n2)cc1 [compound 2, 2-p-Tolylquinolin-4(1H)-one]",IC50,[1]; [10],11000 nM
same,IC50,"[8]; Plasmodium berghei, Huh-7 cells, 48 h after sporozoite addition",1.3 ± 0.2 µM
same,Confluency %,Huh-7 cells; 1 μM,163 ± 14%
same,Confluency %,Huh-7 cells; 10 μM,104 ± 4%
